Among the data in patent publication US12600710B2, “Beta-catenin and b-cell lymphoma 9 (BCL9) inhibitors” (H. LEE MOFFITT CANCER CENTER AND RESEARCH INSTITUTE, INC., priority 2018, dated 2026) are Ki values, retold here.

The assay has as its target T1, β-catenin/BCL9 PPI (Homo sapiens, UniProt P35222).
T1 construct: Wild-type full-length β-catenin were cloned into a pET-28b vector carrying a C-terminal 6×histidine; made in house; host or cells: Escherichia coli BL21 DE3 (β-catenin); BCL9 peptide chemically synthesized
T1 sequence (P35222 1-781): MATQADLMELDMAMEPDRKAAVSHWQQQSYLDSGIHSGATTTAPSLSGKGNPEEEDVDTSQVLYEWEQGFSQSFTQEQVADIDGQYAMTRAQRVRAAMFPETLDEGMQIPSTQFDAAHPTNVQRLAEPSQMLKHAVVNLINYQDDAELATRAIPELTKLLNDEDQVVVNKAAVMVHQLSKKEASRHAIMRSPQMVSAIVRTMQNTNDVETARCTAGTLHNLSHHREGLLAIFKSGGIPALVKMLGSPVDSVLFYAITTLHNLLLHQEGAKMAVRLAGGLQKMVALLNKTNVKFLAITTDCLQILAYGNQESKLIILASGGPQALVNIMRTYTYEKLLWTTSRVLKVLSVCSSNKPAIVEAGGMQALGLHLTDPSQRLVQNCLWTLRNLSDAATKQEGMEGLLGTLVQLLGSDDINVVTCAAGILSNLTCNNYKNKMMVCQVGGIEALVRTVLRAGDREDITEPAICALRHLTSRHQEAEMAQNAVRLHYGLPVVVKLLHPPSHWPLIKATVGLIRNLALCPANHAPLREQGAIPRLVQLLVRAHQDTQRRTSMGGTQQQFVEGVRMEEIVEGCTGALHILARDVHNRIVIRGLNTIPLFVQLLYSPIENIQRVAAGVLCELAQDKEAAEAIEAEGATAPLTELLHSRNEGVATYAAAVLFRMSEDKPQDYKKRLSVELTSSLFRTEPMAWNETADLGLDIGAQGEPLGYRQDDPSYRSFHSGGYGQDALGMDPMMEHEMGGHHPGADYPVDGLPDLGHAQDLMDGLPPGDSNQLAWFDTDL
The experiment in a line: AlphaScreen competitive inhibition assay of the β-catenin/BCL9 PPI. The format is binding. The conditions noted are these: Example 1 compounds, mean ± SD, triplicate, Ki derived from IC50 (Nikolovska-Coleska method). On the procedure:
AlphaScreen competitive inhibition assays. For the competitive inhibition assays of the β-catenin/BCL9 PPI, the negative control (equivalent to 0% inhibition) refers to 5.0 nM of biotinylated BCL9, 40 nM of His6-tagged β-catenin, and 10 μg/mL of donor and acceptor beads in a final volume of 25 μL assay buffer, but no tested inhibitor present. The positive control (equivalent to 100% inhibition) refers to 5.0 nM of biotinylated BCL9 and 10 μg/mL of donor and acceptor beads in a final volume of 25 μL assay buffer.
For the β-catenin/BCL9 assay, 5 nM of biotinylated BCL9 and 40 nM of His6-tagged β-catenin were incubated in assay buffer at 4° C. for 30 min. Different concentrations of the tested inhibitor were added and incubated in 20 μL assay buffer at 4° C. for another 1 h. All of the above assay plates were covered and gently mixed on an orbital shaker. The donor and acceptor beads were then added to the plates to a final concentration of 10 μg/mL in 25 μL assay buffer. The mixture was incubated for 1 h at 4° C. before detection. The IC50 value was determined by nonlinear least-square analysis of GraphPad Prism 5.0. The Ki values were derived from the IC50 values using a method reported by Nikolovska-Coleska et al (Nikolovska-Coleska, Z.; Wang, R.; Fang, X.; Pan, H.; Tomita, Y.; Li, P.; Roller, P. P.; Krajewski, K.; Saito, N. G.; Stuckey, J. A.; Wang, S. Development and optimization of a binding assay for the XIAP BIR3 domain using fluorescence polarization. Anal. Biochem. 2004, 332, 261-273). The assays were conducted under the conditions required by Nikolovska-Coleska et al.'s equation for determining the Ki values. All of the experiments were performed in triplicate. The results were expressed as mean±standard deviation.
In general terms: Alpha assays give light when donor and acceptor beads are brought close together.

Where [1] appears, read: experiment 3, read-out: Ki (μM ± SD) experiment 3.
Setting [2] is: experiment 4, read-out: Ki (μM ± SD) experiment 4.
The mark [3] stands for this setting: experiment 1, read-out: Ki (μM ± SD) experiment 1.
The mark [4] stands for this setting: experiment 2, read-out: Ki (μM ± SD) experiment 2.

Counter-ions that a name gives are not always drawn. Like-named read-outs stand apart in the source and are kept apart here.

As a reminder, the Ki is a measure of affinity in units of concentration, obtained from inhibition or displacement. Take `CC(=O)Nc1cc(F)cc(C(=O)N2CCN(C(=O)c3ccc(O[C@H]4CCNC4)c(C4CCCCC4)c3)C(C(=O)NCC3CCCCC3)C2)c1` (stereo partly drawn) [Compound 26, 4-(3-Acetamido-5-fluorobenzoyl)-1-(3-cyclohexyl-4-(((S)-pyrrolidin-3-yl)oxy)benzoyl)-N-(cyclohexylmethyl) piperazine-2-carboxamide trifluoroacetate]: the Ki under setting [1] came to 410 ± 56 µM and the Ki under setting [2] was determined as 770 ± 140 µM. The like results for `CC(=O)Nc1cc(F)cc(C(=O)N2CCN(C(=O)c3ccc(O[C@H]4CCNC4)c(C4CCCCC4)c3)C(C(=O)Nc3ccccc3)C2)c1` (stereo partly drawn) [Compound 27, 4-(3-Acetamido-5-fluorobenzoyl)-1-(3-cyclohexyl-4-(((S)-pyrrolidin-3-yl)oxy)benzoyl)-N-phenylpiperazine-2-carboxamide trifluoroacetate] were, in that order, 130 ± 22 µM and 580 ± 83 µM. In the same order, the values of `CC(=O)Nc1cc(F)cc(C(=O)N2CCN(C(=O)c3ccc(O[C@H]4CCNC4)c(C4CCCCC4)c3)C(C(=O)NCc3ccccc3)C2)c1` (stereo partly drawn) [Compound 28, 4-(3-Acetamido-5-fluorobenzoyl)-N-benzyl-1-(3-cyclohexyl-4-(((S)-pyrrolidin-3-yl)oxy)benzoyl) piperazine-2-carboxamide trifluoroacetate] are 660 ± 110 µM and 600 ± 89 µM.

Consider `CC(=O)Nc1cc(F)cc(C(=O)N2CCN(C(=O)c3ccc(O[C@H]4CCNC4)c(C4CCCCC4)c3)C(C(=O)N(C)Cc3ccccc3)C2)c1` (stereo partly drawn) [Compound 29, 4-(3-Acetamido-5-fluorobenzoyl)-N-benzyl-1-(3-cyclohexyl-4-(((S)-pyrrolidin-3-yl)oxy)benzoyl)-N-methylpiperazine-2-carboxamide trifluoroacetate], for which the Ki turned out to be 560 ± 120 µM under setting [1] and 740 ± 150 µM under setting [2]. As for `NCc1cn(-c2cc(F)cc(C(=O)N3CCN(C(=O)c4ccc(O[C@H]5CCNC5)c(C5CCCCC5)c4)CC3)c2)nn1` [Compound 30, (S)-(4-(3-(4-(aminomethyl)-1H-1,2,3-triazol-1-yl)-5-fluorobenzoyl)piperazin-1-yl) (3-cyclohexyl-4-(pyrrolidin-3-yloxy)phenyl) methanone ditrifluoroacetate], the Ki is 110 ± 15 µM under setting [3] and 560 ± 71 µM under setting [4].

In the case of `NCc1cn(-c2cc(F)cc(C(=O)N3CCN(C(=O)c4ccc(O[C@H]5CCNC5)c(C5CCC(C(F)(F)F)CC5)c4)CC3)c2)nn1` (stereo partly drawn) [Compound 31, (S)-(4-(3-(4-(aminomethyl)-1H-1,2,3-triazol-1-yl)-5-fluorobenzoyl)piperazin-1-yl) (4-(pyrrolidin-3-yloxy)-3-(4-(trifluoromethyl)cyclohexyl)phenyl) methanone ditrifluoroacetate], the Ki was > 350 µM under setting [3] and 610 ± 91 µM under setting [4]. For the molecule `CNCc1cn(-c2cc(F)cc(C(=O)N3CCN(C(=O)c4ccc(O[C@H]5CCNC5)c(C5CCCCC5)c4)CC3)c2)nn1` [Compound 32, (S)-(4-(3-Cyclohexyl-4-(pyrrolidin-3-yloxy)benzoyl)piperazin-1-yl) (3-fluoro-5-(4-((methylamino)methyl)-1H-1,2,3-triazol-1-yl)phenyl) methanone dihydrochloride], the Ki under setting [1] was > 1000 µM.
